pIC50: −log10 of the molar value.
Tests used:
[1] = tested on: neoplastic cells; test: Apoptosis induction and growth inhibition in neoplastic cells (words only); assay type: cell-based
[2] = tested on: HT-29 cells; test: Apoptosis and necrosis by morphology (acridine orange/ethidium bromide); assay type: cell-based; conditions: HT-29 cells treated for six days
Procedure: In one type of apoptosis assay, suspected neoplastic cells are removed from a patient. The cells are then grown in culture in the presence or absence of a cGMP-specific PDE inhibitor. Apoptotic cells are measured by combining both the attached and “floating” compartments of the cultures. The protocol for treating tumor cell cultures with PDE inhibitors and related compounds to obtain a significant amount of apoptosis has been described in the literature. (See, Piazza, G. A., et al., Cancer Research, 55:3110-16, 1995, which is incorporated herein by reference). The novel features of this assay include collecting both floating and attached cells, identification of the optimal treatment times and dose range for observing apoptosis, and identification of optimal cell culture conditions.
Following treatment of neoplastic and normal cells with a test compound, cultures can be assayed for apoptosis and necrosis by fluorescent microscopy following labeling with acridine orange and ethidium bromide. The method for measuring apoptotic cell number has previously been described by Duke & Cohen, “Morphological And Biochemical Assays Of Apoptosis,” Current Protocols In Immunology, Coligan et al., eds. 3.17.1-3.17.16 (1992, which is incorporated herein by reference).
For example, floating and attached cells are collected, and aliquots of cells are centrifuged. The cell pellet is then resuspended in media and a dye mixture containing acridine orange and ethidium bromide. The mixture is then examined microscopically for morphological features of apoptosis.
Apoptotic and necrotic cell death was determined as previously described (Duke and Cohen, In: Current Protocols in Immunology, 3.17.1-3.17.16, New York, John Wiley and Sons, 1992). […] All data were collected from the same experiment.
The diagnostic method of this invention is used to determine whether a particular neoplasia is sensitive to treatment with a cGMP-specific PDE inhibitor. The apoptosis inducing activity for a series of phosphodiesterase inhibitors, specific for different PDEs, was determined. HT-29 cells were treated for 6 days with various inhibitors of phosphodiesterase. Apoptosis and necrosis were determined morphologically after acridine orange and ethidium bromide labeling in accordance with the assay described, supra.

[3] = tested on: PDE peak B (novel cGMP-specific PDE) from SW-480 cells; test: cGMP hydrolysis by PDE peak B; assay type: biochemical, human
[4] = tested on: HCT116, Colon; test: Growth inhibition of HCT116 cells; assay type: cell-based; conditions: Homo sapiens, HCT-116
Procedure: (§1) Briefly, suspected neoplastic tissue samples are removed from a patient and grown as explants in vitro. The tissue samples are grown in the presence and absence of a cGMP-specific PDE inhibitor. After being grown in culture, cells are fixed by the addition of cold trichloroacetic acid. Protein levels are measured using the sulforhodamine B (SRB) colorimetric protein stain assay as previously described by Skehan, P., Storeng, R., Scudiero, D., Monks, A., McMahon, J., Vistica, D., Warren, J. T., Bokesch, H., Kenney, S., and Boyd, M. R., “New Colorimetric Assay For Anticancer-Drug Screening,” J. Natl. Cancer Inst. 82: 1107-1112, 1990, which is incorporated herein by reference.
(§2) To show the effectiveness of cGMP-specific PDE inhibition on various forms of neoplasia, (and, therefore, the usefulness of the diagnostic methods of this invention) cGMP-specific PDE inhibitors were tested on a number of neoplastic cell lines. […] Exisulind is defined as (Z)-5-fluoro-2-methyl-1-[[4-(methylsulfonyl)phenyl]methylene]indene-3-yl acetic acid or a salt thereof. The IC50 values were determined by the SRB assay.

[5] = target: T1, PDE peak A (PDE5) from SW-480 cells (Homo sapiens, UniProt O76074); test: cGMP hydrolysis by PDE peak A; assay type: biochemical
T1 construct: SW-480 cells are collected and homogenized; The homogenate is centrifuged, and the supernatant is loaded onto a DEAE-Trisacryl M column; endogenous in cells; host or cells: SW-480 human colon carcinoma cells, DEAE-Trisacryl M fraction peak A

[6] = tested on: A-427, Lung; test: Growth inhibition of A-427 cells; assay type: cell-based; conditions: Homo sapiens
Procedure: as §1, §2

- pIC50 [4]: 4.35
- Mode of inhibition of cGMP hydrolysis, peak A [5]: competitively inhibit
Compound: CSc1ccc(/C=C2/C(C)=C(CC(=O)O)c3cc(F)ccc32)cc1 [Sulindac sulfide]
- Apoptosis induction in neoplastic cells (in words) [1]: induce apoptosis in neoplastic cells
- Growth inhibition of neoplastic cells (in words) [1]: precisely the opposite
- Apoptotic and necrotic cell death (FIG. 1, in words) [2]: capable of causing apoptotic cell death without inducing neoplastic cell necrosis
- Mode of inhibition of cGMP hydrolysis, peak B [3]: competitively inhibit
- pIC50 [6]: 4.05
